Data: patent publication US11702404B2, “GLP-1R modulating compounds” (priority 2019, dated 2023)
pEC50: −log10 of the molar value.

How the values were obtained:
[1] = target: GLP-1R (Homo sapiens, UniProt P43220); test: GLP-1R activation: cAMP increase in CHO cells stably expressing GLP-1R; assay type: cell-based; conditions: cAMP increase, CHO cells stably expressing GLP-1R, 10 point dose response, 30 minutes incubation; read-out: EC50
[2] = Microsomal stability, human liver microsomes (predicted hepatic clearance); conditions: predicted from in vitro microsomal stability data

Chain of GLP-1R (P43220 24-463): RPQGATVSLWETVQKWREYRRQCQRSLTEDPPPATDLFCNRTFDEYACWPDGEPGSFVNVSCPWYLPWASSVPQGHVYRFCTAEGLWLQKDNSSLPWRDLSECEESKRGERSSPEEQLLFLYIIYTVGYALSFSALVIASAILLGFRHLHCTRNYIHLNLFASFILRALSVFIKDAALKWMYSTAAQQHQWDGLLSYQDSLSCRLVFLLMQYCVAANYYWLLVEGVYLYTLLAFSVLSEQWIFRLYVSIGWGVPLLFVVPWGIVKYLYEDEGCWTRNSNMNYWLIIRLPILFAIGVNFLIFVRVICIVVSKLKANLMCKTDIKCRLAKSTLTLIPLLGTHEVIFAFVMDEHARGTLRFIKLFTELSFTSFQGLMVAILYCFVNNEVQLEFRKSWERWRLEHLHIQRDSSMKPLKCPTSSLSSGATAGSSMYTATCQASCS

SMILES | pEC50 [1] | Predicted Hepatic Clearance (Pred. Cl.) [2]
COCCn1c(Cc2ccc(-c3cccc(OCc4ccc(C(F)(F)F)nc4F)n3)cc2F)nc2ccc(C(=O)O)cc21 [Example 487, 2-(2-fluoro-4-(6-((2-fluoro-6-(trifluoromethyl)pyridin-3-yl)methoxy)pyridin-2-yl)benzyl)-1-(2-methoxyethyl)-1H-benzo[d]imidazole-6-carboxylic acid] | 7.00 | 0.32 L/h/kg
N#Cc1ccc(COc2cccc(-c3ccc(Cc4nc5ccc(C(=O)O)cc5n4CC4(n5ccnn5)CC4)c(F)c3)n2)c(F)c1 [Example 284, 1-((1-(1H-1,2,3-triazol-1-yl)cyclopropyl)methyl)-2-(4-(6-((4-cyano-2-fluorobenzyl)oxy)pyridin-2-yl)-2-fluorobenzyl)-1H-benzo[d]imidazole-6-carboxylic acid] | 8.54 | <0.11 L/h/kg
N#Cc1ccc(COc2nc(-c3ccc(Cc4nc5ccc(C(=O)O)cc5n4C[C@@H]4CCO4)c(F)c3)ccc2F)c(F)c1 [Example 128, (S)-2-(4-(6-((4-cyano-2-fluorobenzyl)oxy)-5-fluoropyridin-2-yl)-2-fluorobenzyl)-1-(oxetan-2-ylmethyl)-1H-benzo[d]imidazole-6-carboxylic acid] | 9.29 | <0.11 L/h/kg
COC(C)(C)Cn1c(Cc2cc(F)c(-c3cccc(OCc4ccc(C#N)cc4F)n3)cc2F)nc2ccc(C(=O)O)cc21 [Example 586, 2-(4-(6-((4-cyano-2-fluorobenzyl)oxy)pyridin-2-yl)-2,5-difluorobenzyl)-1-(2-methoxy-2-methylpropyl)-1H-benzo[d]imidazole-6-carboxylic acid] | 9.27 | 0.46 L/h/kg
N#CCC1(Cn2c(Cc3cc(F)c(-c4ccc(F)c(OCc5ccc(C#N)cc5F)n4)cc3F)nc3ccc(C(=O)O)cc32)CC1 [Example 153, 2-(4-(6-((4-cyano-2-fluorobenzyl)oxy)-5-fluoropyridin-2-yl)-2,5-difluorobenzyl)-1-((1-(cyanomethyl)cyclopropyl)methyl)-1H-benzo[d]imidazole-6-carboxylic acid] | 9.96 | 0.31 L/h/kg
COCC1(Cn2c(Cc3cc(F)c(-c4cccc(OCc5ccc(C#N)cc5F)n4)cc3F)nc3ccc(C(=O)O)cc32)CCC1 [Example 743] | 8.61 | 0.40 L/h/kg
COc1cc(C#N)ccc1COc1nccc(-c2cc(F)c(Cc3nc4ccc(C(=O)O)cc4n3CC3(CC#N)CC3)cc2F)n1 [Example 417, 2-(4-(2-((4-cyano-2-methoxybenzyl)oxy)pyrimidin-4-yl)-2,5-difluorobenzyl)-1-((1-(cyanomethyl)cyclopropyl)methyl)-1H-benzo[d]imidazole-6-carboxylic acid] | 10.00 | 0.76 L/h/kg
COCCn1c(Cc2ccc(-c3ncc(F)c(OCc4ccc(C#N)cc4F)n3)cc2F)nc2ccc(C(=O)O)cc21 [Example 126, 2-(4-(4-((4-cyano-2-fluorobenzyl)oxy)-5-fluoropyrimidin-2-yl)-2-fluorobenzyl)-1-(2-methoxyethyl)-1H-benzo[d]imidazole-6-carboxylic acid] | 8.43 | 0.28 L/h/kg
N#Cc1ccc(COc2nccc(-c3ccc(Cc4nc5ccc(C(=O)O)cc5n4CC4(CF)CC4)cc3F)n2)c(F)c1 [Example 350, 2-(4-(2-((4-cyano-2-fluorobenzyl)oxy)pyrimidin-4-yl)-3-fluorobenzyl)-1-((1-(fluoromethyl)cyclopropyl)methyl)-1H-benzo[d]imidazole-6-carboxylic acid] | 9.10 | 0.38 L/h/kg
COCCn1c(Cc2cc(F)c(-c3cccc(OCc4ccc(Cl)nc4F)n3)cc2F)nc2ccc(C(=O)O)cc21 [Example 823] | 7.70 | 0.11 L/h/kg
COCCn1c(Cc2ccc(-c3cccc(OCc4ccc(C#N)cc4F)n3)c(C(F)(F)F)c2)nc2ccc(C(=O)O)cc21 [Example 34, 2-(4-(6-((4-cyano-2-fluorobenzyl)oxy)pyridin-2-yl)-3-(trifluoromethyl)benzyl)-1-(2-methoxyethyl)-1H-benzo[d]imidazole-carboxylic acid] | 5.66 | 0.59 L/h/kg
COCCn1c(Cc2cc(F)c(-c3cccc(OCc4ccc(C#N)cc4)n3)cc2F)nc2c(F)cc(C(=O)O)cc21 [Example 799] | 6.87 | 0.16 L/h/kg
COCCn1c(Cc2ccc(-c3cccc(OCc4cccc(-c5ccccc5)c4)n3)cc2F)nc2ccc(C(=O)O)cc21 [Example 504, 2-(4-(6-([1,1′-biphenyl]-3-ylmethoxy)pyridin-2-yl)-2-fluorobenzyl)-1-(2-methoxyethyl)-1H-benzo[d]imidazole-6-carboxylic acid] | 7.55 | 0.21 L/h/kg
COCCn1c(Cc2ccc(-c3cccc(OCc4ccc(C#N)cc4F)n3)cc2CF)nc2ccc(C(=O)O)cc21 [Example 410, 2-(4-(6-((4-cyano-2-fluorobenzyl)oxy)pyridin-2-yl)-2-(fluoromethyl)benzyl)-1-(2-methoxyethyl)-1H-benzo[d]imidazole-carboxylic acid] | 7.68 | 0.89 L/h/kg
N#Cc1ccc(COc2cccc(-c3cc(F)c(Cc4nc5ccc(C(=O)O)cc5n4Cc4nncs4)cc3F)n2)c(F)c1 [Example 576, 1-((1,3,4-thiadiazol-2-yl)methyl)-2-(4-(6-((4-cyano-2-fluorobenzyl)oxy)pyridin-2-yl)-2,5-difluorobenzyl)-1H-benzo[d]imidazole-6-carboxylic acid] | 9.07 | 0.48 L/h/kg
N#Cc1ccc(COc2cccc(-c3cc(F)c(Cc4nc5c(F)cc(C(=O)O)cc5n4CCOC4CC4)cc3F)n2)c(F)c1 [Example 894] | 8.57 | 0.25 L/h/kg
N#Cc1ccc(COc2cccc(-c3ccc(Cc4nc5cccc(C(=O)O)c5n4CC4(CF)CC4)c(F)c3)n2)c(F)c1 [Example 224, 2-(4-(6-((4-cyano-2-fluorobenzyl)oxy)pyridin-2-yl)-2-fluorobenzyl)-1-((1-(fluoromethyl)cyclopropyl)methyl)-1H-benzo[d]imidazole-7-carboxylic acid] | 7.63 | 0.45 L/h/kg
N#Cc1ccc(COc2cccc(-c3cc(F)c(Cc4nc5ccc(C(=O)O)cc5n4C[C@@H]4CCO4)cc3F)n2)cc1 [Example 536, (S)-2-(4-(6-((4-cyanobenzyl)oxy)pyridin-2-yl)-2,5-difluorobenzyl)-1-(oxetan-2-ylmethyl)-1H-benzo[d]imidazole-6-carboxylic acid] | 10.40 | 0.145 L/h/kg
N#Cc1ccc(COc2cccc(-c3ccc(Cc4nc5c(F)cc(C(=O)O)cc5n4CC4(CF)CC4)c(F)c3)n2)c(F)c1 [Example 361, 2-(4-(6-((4-cyano-2-fluorobenzyl)oxy)pyridin-2-yl)-2-fluorobenzyl)-4-fluoro-1-((1-(fluoromethyl)cyclopropyl)methyl)-1H-benzo[d]imidazole-6-carboxylic acid] | 9.13 | 0.17 L/h/kg
CC(C#N)Cn1c(Cc2cc(F)c(-c3cccc(OCc4ccc(C#N)cc4F)n3)cc2F)nc2ccc(C(=O)O)cc21 (racemic) [Example 306, 2-(4-(6-((4-cyano-2-fluorobenzyl)oxy)pyridin-2-yl)-2,5-difluorobenzyl)-1-(2-cyanopropyl)-1H-benzo[d]imidazole-6-carboxylic acid] | 8.73 | 0.36 L/h/kg
CC1(Cn2c(Cc3ccc(-c4cccc(OCc5ccc(C#N)cc5F)n4)cc3F)nc3ccc(C(=O)O)cc32)CCO1 (stereo not shown) [Example 365, 2-(4-(6-((4-cyano-2-fluorobenzyl)oxy)pyridin-2-yl)-2-fluorobenzyl)-1-((2-methyloxetan-2-yl)methyl)-1H-benzo[d]imidazole-6-carboxylic acid] | 9.22 | 0.28 L/h/kg
N#Cc1ccc(COc2cccc(-c3ccc(Cc4nc5ccc(C(=O)O)cc5n4Cc4ncco4)c(F)c3)n2)c(F)c1 [Example 371, 2-(4-(6-((4-cyano-2-fluorobenzyl)oxy)pyridin-2-yl)-2-fluorobenzyl)-1-(oxazol-2-ylmethyl)-1H-benzo[d]imidazole-6-carboxylic acid] | 8.79 | 0.18 L/h/kg
N#Cc1ccc(COc2ncccc2-c2cc(F)c(Cc3nc4ccc(C(=O)O)cc4n3CC3(CF)CC3)c(F)c2)c(F)c1 [Example 199, 2-(4-(2-((4-cyano-2-fluorobenzyl)oxy)pyridin-3-yl)-2,6-difluorobenzyl)-1-((1-(fluoromethyl)cyclopropyl)methyl)-1H-benzo[d]imidazole-carboxylic acid] | 7.68 | <0.11 L/h/kg
N#CCC1(Cn2c(Cc3ccc(-c4ncc(F)c(OCc5ccc(C#N)cc5F)n4)c(F)c3)nc3ccc(C(=O)O)cc32)CC1 [Example 127, 2-(4-(4-((4-cyano-2-fluorobenzyl)oxy)-5-fluoropyrimidin-2-yl)-3-fluorobenzyl)-1-((1-(cyanomethyl)cyclopropyl)methyl)-1H-benzo[d]imidazole-6-carboxylic acid] | 9.47 | 0.4 L/h/kg
N#Cc1ccc(COc2cccc(-c3ccc(Cc4nc5ccc(C(=O)O)cc5n4CC4(CF)CC4)cc3F)n2)c(F)c1 [Example 521, 2-(4-(6-((4-cyano-2-fluorobenzyl)oxy)pyridin-2-yl)-3-fluorobenzyl)-1-((1-(fluoromethyl)cyclopropyl)methyl)-1H-benzo[d]imidazole-6-carboxylic acid] | 9.27 | 0.405 L/h/kg
COCCn1c(Cc2cc(F)c(-c3cccc(OCc4ccc(Cl)nc4C)n3)cc2F)nc2ccc(C(=O)O)cc21 [Example 821] | 7.83 | 0.16 L/h/kg
